Values quoted from earlier work in patent US20020131987A1, “METHOD FOR ENHANCING STABLE CELLULAR CREATINE CONCENTRATION” (priority 1997, published 2002).

Tests used:
[1] = not given; remark: listed apart in the source
[2] = not given; remark: listed apart in the source
[3] = not given; remark: listed apart in the source
[4] = not given; remark: listed apart in the source

| Structure (SMILES) | reaction to litmus | volume of alcohol in which one gram dissolves ([1]; alcohol) | volume of water in which one gram dissolves ([1]; water) | formation of creatinine in aqueous solution ([2]; dissolved in an aqueous solution) | creatine lost from the cell ([3]; 70 kg male) | loss of creatine from skeletal muscle ([3]; human skeletal muscle) | formation of creatinine in acid solution ([2]; acid solution) | time for conversion of creatine to creatinine ([2]; acidic aqueous solution) | decomposition in the alimentary tract ([4]; after oral administration, no appreciable increase in urinary urea or ammonia) | absorption from the alimentary tract ([4]; oral administration) |
| --- | --- | --- | --- | --- | --- | --- | --- | --- | --- | --- |
| CN(CC(=O)O)C(=N)N.O [creatine monohydrate] | neutral | about 9 liters | 75 mL | creatinine is formed | – | – | – | – | – | – |
| CN(CC(=O)O)C(=N)N [creatine] | – | – | – | – | approximately 2 grams per day | about 3 % per day | complete | a number of hours | not decomposed | completely absorbed |
